Reference: US8637684B2, “Tautomycetin and tautomycetin analog biosynthesis” (Wisconsin Alumni Research Foundation, priority 2010, dated 2014)
Read-outs that look alike come from different tables or passages of the source.

Columns and labels:
[1] = test system: human primary T-cell tyrosine phosphorylation; details: Shim et al., 2002, cited from earlier work
[2] = test system: hematopoietic progenitors (MIEG3, wild-type SHP2, SHP2/E76K); assay: Methylcellulose-based colony assay of transduced bone marrow LDMNCs (CFU-M / CFU-GM); type: cell-based; details: 2 μM TTN, GM-CSF 1 ng/mL, 7 days
Procedure: (§1) Transduced, EGFP+ cells were subjected to ^3H-thymidine incorporation assays, as previously described (Munugalavadla et al., 2007), or plated at a concentration of 8000 cells/mL in 0.9% methylcellulose-based media containing IMDM, 2 mM glutamine, 1% penicillin/streptomycin, 80 μM β-mercaptoethanol, 30% FBS, and GM-CSF 1 ng/mL or with saturating concentrations of growth factors including IL-3 200 U/mL, erythropoietin 4 U/mL, and stem cell factor (SCF) 100 ng/mL. All growth factors were from Peprotech. Cultures were incubated in a humidified incubator at 37° C. in 5% CO2 for 7 days and were scored for total colonies and for morphology to determine colony forming unit (CFU)-granulocyte-macrophage (GM) or CFU-monocyte (M).
(§2) For biochemical studies, macrophage progenitor cells expressing empty vector (MIEG3), wild-type SHP2, or SHP2/E76K were serum- and growth factor-deprived for 24 hours. Cells were pre-treated with DMSO or 2 μM TTN for 2 hours, and then cultures either remained unstimulated or were stimulated with GM-CSF at 50 ng/mL for 60 minutes. […] To provide further evidence that SHP2 is a molecular target of TTN, the inventors determined the X-ray crystal structure of SHP2 in complex with TTN D-1, as crystallization attempts for the SHP2-TTN complex were unsuccessful. […]

[3] = literature (Luo et al., 2007; Mitsuhashi et al., 2003, 2008); cited from earlier work
[4] = test system: TCR-mediated ERK1/2 activation in Jurkat T cells; assay: Anti-CD3 (TCR) induced ERK1/2 activation in Jurkat T cells, immunoblot; type: cell-based; details: 2 hours pretreatment, anti-CD3 stimulation
Procedure: Jurkat T cells were grown at 37° C. under an atmosphere of 5% CO2 in RPMI medium 1640 supplemented with 10% FBS. Cells were pretreated with different concentrations of TTN, TTN D-1, or TTM for 2 hours and stimulated with […] anti-CD3 antibody (OKT3; eBioscience) for 5 min and 30 min, respectively. Subsequently, cells were spinned down at 2000 rpm in 4° C., and cell pellets were lysed in 50 mM Tris-HCl (pH 7.5), 150 mM NaCl, 10% glycerol, 1% NP-40, 50 mM NaF, 10 mM pyrophosphate, 5 mM idoacetate, 1 mM sodium orthovanadate, and the protease inhibitor mixture. After 30 min lysing on ice, the cell lysates were centrifuged at 13,200 rpm for 15 min. Total cellular proteins were separated by SDS/PAGE and transferred electrophoretically to nitrocellulose membrane, which was immunoblotted by appropriate antibodies followed by incubation with HRP-conjugated secondary antibodies. Blots were developed using Pierce Pico ECL reagent (Thermo) according to the manufacturer's instructions.
TTN induces immunosuppression by suppression of TCR-mediated tyrosine phosphorylation and ERK1/2 activity in T cells (Shim et al., 2002). However, the mechanism of action for TTN's ability to block TCR signaling remains undefined. […]

[5] = test system: SHP2/E76K-expressing hematopoietic progenitors; assay: 3H-thymidine incorporation assay of transduced bone marrow LDMNCs with GM-CSF; type: cell-based; details: 2 μM TTN for 24 hrs, GM-CSF 1 ng/mL
Procedure: as §1, §2

SHP2 = target: T1, SHP2 (Homo sapiens, UniProt Q06124); assay: Ki measurement, steady-state kinetic analysis of SHP2-catalyzed pNPP hydrolysis; type: biochemical
T1 construct: The expression and purification of the SHP2 catalytic domain (residues 262-528) were described previously; made in house
T1 sequence (Q06124 262-528): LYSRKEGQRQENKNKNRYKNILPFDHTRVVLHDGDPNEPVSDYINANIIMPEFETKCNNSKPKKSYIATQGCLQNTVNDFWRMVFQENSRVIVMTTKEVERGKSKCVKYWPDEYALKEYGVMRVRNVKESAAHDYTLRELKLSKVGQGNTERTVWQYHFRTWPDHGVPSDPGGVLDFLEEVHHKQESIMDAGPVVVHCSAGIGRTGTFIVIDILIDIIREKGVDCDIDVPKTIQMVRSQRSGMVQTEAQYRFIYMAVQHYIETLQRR
Procedure: The SHP2-catalyzed hydrolysis of pNPP in the presence of TTN or TTN D-1 was assayed at 25° C. and in the assay buffer described above. The mode of inhibition and K, value were determined in the following manner. At various fixed concentrations of the inhibitor (0-3 Ki), the initial rate at a series of pNPP concentrations was measured by following the production of p-nitrophenol as describe above, ranging from 0.2- to 5-fold the apparent Km values. The data were fitted to appropriate equations using SigmaPlot-Enzyme Kinetics to obtain the inhibition constant and to assess the mode of inhibition.
To further characterize SHP2 inhibition by the TTN and TTN D-1, the IC50 values for TTN and TTN D-1 were measured at a pNPP concentration fixed at the experimentally determined Km for each PTP. […] To establish the mechanism of SHP2 inhibition by TTN and TTN D-1, the inhibition constants and mode of inhibition were determined by steady-state kinetic analysis of the SHP2-catalyzed reaction.

tautomycetin [TTN]
concentration inhibiting human primary T-cell tyrosine phosphorylation [1]: 1 µg/mL | concentration inhibiting human primary T-cell tyrosine phosphorylation ([1]; same value converted): 1.65 µM | development of CFU-M [2]: reduced in all cells types | concentrations required to exert a cellular effect [3]: 1 to 5 µM | effect on TCR-mediated ERK1/2 activation [4]: strongly reduced | effect on GM-CSF-stimulated proliferation of SHP2/E76K-expressing progenitors [5]: effectively reduced the proliferation | mode of inhibition of the SHP2-catalyzed reaction (SHP2; Lineweaver-Burk, FIG. 2): competitive inhibitors | Ki (SHP2; pNPP, 25° C., pH 7.0): 1600 ± 100 nM
